From patent US10815221B2, “Crystal forms of an androgen receptor antagonist, preparation method and use thereof” (Crystal Pharmaceutical (Suzhou) Co., Ltd., priority 2016, dated 2020)
In brackets after ≈: the same amount, converted by molar mass. Entries after “also recorded” stand apart in the source; their conditions may differ.

Tests used:
Type in all cases: physicochemical
[1] = Storage stability of crystalline form (XRPD); settings: for Change of Solid Form: 3 months
Protocol: Samples of Form B were stored under different conditions of 25° C./60% RH (open), 40° C./75% RH (open) for 3 months, and XRPD was applied to test the crystalline form.
Samples of Form C were stored at 25° C./60% RH (open) for 1 month, and XRPD was applied to test the crystalline form.

[2] = Hygroscopicity by dynamic vapor sorption (DVS); settings: for Hygroscopicity / Weight gain under 80% RH: DVS, 80% RH; for Solid Form after DVS: XRPD after DVS test
Protocol: Dynamic vapor sorption (DVS) was applied to test hygroscopicity of Form B, Form C and crystalline form I in the prior art with about 10 mg of samples. The DVS plot of Form B is substantially as depicted in FIG. 10 and the XRPD pattern overlay before and after DVS test of Form B is substantially as depicted in FIG. 11. The DVS plot of Form C is substantially as depicted in FIG. 12 and the XRPD pattern overlay before and after DVS test of Form C is substantially as depicted in FIG. 13. The DVS plot of crystalline form I in the prior art is substantially as depicted in FIG. 14.

[3] = Solubility in SGF, FeSSIF and FaSSIF by HPLC
Protocol: High Performance Liquid Chromatography (HPLC) data in the present disclosure are collected from Agilent 1260 with diode array detector (DAD).
The HPLC method parameters for solubility in the present disclosure are as follows:
1. Column: Agilent Infinity Lab Poroshell 120 EC-C18 150*3.0 mm, 2.7 μm
2. Mobile Phase: A: 25 mmol/L KH2PO4 aqueous solution
3. Flow rate: 0.7 mL/min 4. Injection Volume: 5 μL 5. Detection wavelength: 220 nm 6. Column Temperature: 40° C. 7. Diluent: Acetonitrile/H2O (v/v, 1/1)
(§1) Samples of Form B in the present disclosure and crystalline form I disclosed in WO2016120530A1 were suspended into SGF (simulated gastric fluids, pH=1.8), FeSSIF (Fed state simulated intestinal fluids, pH=5.0) and FaSSIF (Fasted state simulated intestinal fluids, pH=6.5) to get saturated solutions. After equilibrated for 1 hour and 4 hours, concentrations of the saturated solutions were measured by HPLC.
as §1, with “C” for “B”, “into” for “into SGF (simulated gastric fluids, pH=1.8),”

[4] = Particle size distribution (laser particle size analyzer); settings: for D10 / D50 / D90 / MV (average particle size by volume): wet process, Isopar G
Protocol: The particle size distribution test in the present disclosure is acquired by the S3500 laser particle size analyzer of Microtrac. Microtrac S3500 is equipped with the SDC (Sample Delivery Controller). The test is carried out by wet process, and the dispersion medium is Isopar G. The parameters are as follows:
The particle size distribution of Form B in the present disclosure and Form I disclosed in WO2016120530A1 were tested.

[5] = Grinding stability (XRPD before and after grinding); settings: manually ground in a mortar for 5 minutes
Protocol: About 20 mg of Form C in the present disclosure and crystalline form I disclosed in WO2016120530A1 were manually ground in a mortar for 5 minutes. XRPD tests of the samples before and after grinding were carried out. The XRPD patterns of Form C were shown in FIG. 20 (top: XRPD pattern after grinding, bottom: XRPD pattern before grinding), and the XRPD patterns of crystalline form I were shown in FIG. 21 (top: XRPD pattern after grinding, bottom: XRPD pattern before grinding).

CC(O)c1cc(C(=O)N[C@@H](C)Cn2ccc(-c3ccc(C#N)c(Cl)c3)n2)n[nH]1 (single isomer, unassigned) [Form B]
Time the form keeps stable ([1]; 25° C./60% RH): at least 3 months
Change of Solid Form ([1]; 25° C./60% RH (open)): physically stable
Time the form keeps stable ([1]; 40° C./75% RH): at least 3 months
Change of Solid Form ([1]; 40° C./75% RH (open)): physically stable
Hygroscopicity [2]: slightly hygroscopic
Weight gain under 80% RH [2]: 0.93%
Solid Form after DVS [2]: remain unchanged; also recorded: Form B
Solubility ([3]; FaSSIF pH=6.5, 1 hour): 3.0 µg/mL (≈ 7.52 µM)
Solubility ([3]; FaSSIF pH=6.5, 4 hours): 0.5 µg/mL (≈ 1.25 µM)
Solubility ([3]; FeSSIF pH=5.0, 1 hour): 408.1 µg/mL (≈ 1020 µM)
Solubility ([3]; SGF pH=1.8, 1 hour): 62.7 µg/mL (≈ 157 µM)
Solubility ([3]; SGF pH=1.8, 4 hours): 33.5 µg/mL (≈ 84 µM)
solubility at 4 h ([3]; fed state simulated intestinal fluid (FeSSIF), pH 5, fessif, thermodynamic from solid, FeSSIF pH=5.0, 4 hours): 288 µg/mL (≈ 722 µM)
Particle size distribution pattern [4]: unimodal and normal distribution
D10 [4]: 1.20 μm
D50 [4]: 2.73 μm
D90 [4]: 5.49 μm
MV (average particle size by volume) [4]: 3.12 μm

CC(O)c1cc(C(=O)N[C@@H](C)Cn2ccc(-c3ccc(C#N)c(Cl)c3)n2)n[nH]1 (single isomer, unassigned) [Form C]
Time the form keeps stable ([1]; 25° C./60% RH): at least 1 month
Hygroscopicity [2]: slightly hygroscopic
Weight gain under 80% RH [2]: 1.60%
Solid Form after DVS [2]: remain unchanged; also recorded: Form C
Crystallinity after grinding [5]: remains good crystallinity after grinding
Solubility ([3]; FaSSIF pH=6.5, 1 hour): 39.0 µg/mL (≈ 97.8 µM)
Solubility ([3]; FaSSIF pH=6.5, 4 hours): 35.5 µg/mL (≈ 89 µM)
Solubility ([3]; FeSSIF pH=5.0, 1 hour): 469.6 µg/mL (≈ 1180 µM)
Solubility ([3]; FeSSIF pH=5.0, 4 hours): 163.1 µg/mL (≈ 409 µM)

CC(O)c1cc(C(=O)N[C@@H](C)Cn2ccc(-c3ccc(C#N)c(Cl)c3)n2)n[nH]1 (some centres unmarked) [Crystalline form I, reference compound]
Hygroscopicity [2]: hygroscopic
Weight gain under 80% RH [2]: >2.37%
Crystallinity after grinding [5]: decreased significantly
Solubility ([3]; FaSSIF pH=6.5, 1 hour): 1.0 µg/mL (≈ 2.51 µM)
Solubility ([3]; FaSSIF pH=6.5, 4 hours): 0.1 µg/mL (≈ 0.251 µM)
Solubility ([3]; FeSSIF pH=5.0, 1 hour): 183.1 µg/mL (≈ 459 µM)
Solubility ([3]; FeSSIF pH=5.0, 4 hours): 206.3 µg/mL (≈ 517 µM)
Solubility ([3]; SGF pH=1.8, 1 hour): 14.0 µg/mL (≈ 35.1 µM)
Solubility ([3]; SGF pH=1.8, 4 hours): 9.9 µg/mL (≈ 24.8 µM)
Particle size distribution pattern [4]: bimodal distribution
D10 [4]: 24.97 μm
D50 [4]: 100.5 μm
D90 [4]: 297.4 μm
MV (average particle size by volume) [4]: 136.1 μm
